A word on the GI50: it is the concentration that inhibits growth by half. As usually defined, the TGI is the concentration at which net growth stops. A higher TGI goes with less potent growth arrest.

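Briefly, cells in 96-well plates were exposed to five compound concentrations for 48 h, and endpoints were estimated by linear interpolation. GI50: concentration for 50% inhibition of growth. TGI marks complete inhibition of growth.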

The assay has as its system MDA-MB-468 breast. Description: DTP human tumour cell line panel, 48 h.
As to `COc1ccc(-c2cnnn2-c2nonc2-n2cccc2)cc1OC`, the GI50 is 2000 nM and the total growth inhibition concentration (TGI) is 7900 nM.

Regarding `CN(C)CCCOc1cccc(NC2=C(Cl)C(=O)C(Nc3cccc(OCCCN(C)C)c3)=C(Cl)C2=O)c1`, the 50% growth inhibitory concentration (GI50) is 212 nM and the total growth inhibition concentration (TGI) was determined as 458 nM.

Consider `CCCCCCCCCc1ccc(OCCOCCOCCOCCOCCOCCOCCOCCOCCO)cc1`, for which the GI50 was 66 nM and the TGI came out at 1180 nM.

`Cc1cc(N/N=C/c2nc(-c3ccc(Cl)cc3)oc2C)c2cc(Br)ccc2n1`: the GI50 is 1600 nM and the TGI was found to be 3630 nM.

Take `O=C(Nc1cccc2[nH]c(C(F)(F)F)nc12)c1cc(Cl)ccc1Cl`: the GI50 is 2520 nM and the total growth inhibition concentration (TGI) amounted to 7740 nM.

For `C=C1C(=O)O[C@H]2[C@H]1CC/C(Cn1cc(-c3ccc(N)cc3)nn1)=C\CC[C@@]1(C)O[C@@H]21`, the GI50 is 1770 nM and the total growth inhibition concentration (TGI) was determined as 4210 nM.

As for `Nc1c(C(=O)c2cccc(C#CCN3CCCCC3)c2)cnn1-c1ccc(F)cc1`, the GI50 was 7720 nM and the total growth inhibition concentration (TGI) is more than 25000 nM.

Take `COc1ccc(C(=O)c2sc3nc(-c4ccccc4OC)ccc3c2N)cc1OC`: the GI50 was 6280 nM and the TGI was more than 100000 nM.

Turning to `FC(F)(F)c1ccc(-c2nn3ncccc3c2-c2ccnc(Nc3ccc4c(c3)OCCO4)n2)cc1`, the GI50 is 4520 nM and the total growth inhibition concentration (TGI) was determined as 17600 nM.

For the molecule `Cc1ccc2c(n1)C(=O)C(Cl)=C(Nc1ccc(C(=O)OC(C)(C)C)cc1)C2=O`, the GI50 was 11100 nM and the concentration for total growth inhibition (TGI) came out at 26700 nM.

Regarding `C/C(=C(/c1ccccc1)c1ccc(OCC(O)CNCCN2CCOCC2)cc1)c1ccccc1` (stereo not drawn), the GI50 was 1410 nM and the TGI is 2850 nM.

With `Cn1c(=O)n(C)c2cc(CNCCNc3ccnc4cc(Cl)ccc34)ccc21`, the GI50 was 14400 nM and the total growth inhibition concentration (TGI) worked out at 32400 nM.

On to `CCSc1ccc([C@@H]2[C@@H](O)C(=O)N2c2cc(OC)c(OC)c(OC)c2)cc1`, for which the GI50 is less than 10 nM and the concentration for total growth inhibition (TGI) came to 57600 nM.

`COc1cccc(CNc2ncnc3c2ncn3C2OC(CO)C(O)C2O)c1O` (stereo not drawn): the GI50 was 137 nM and the TGI was 2090 nM.

On to `CCOC(=O)c1sc(-c2ccc(OS(=O)(=O)C[C@]34CCC(CC3=O)C4(C)C)c(C=O)c2)nc1C`, for which the GI50 was 966 nM and the total growth inhibition concentration (TGI) was 3300 nM.

For `Cc1cn(-c2cccc(NC(=O)c3ccc(C)c(Nc4nccc(-c5cccnc5)n4)c3)c2)cn1`, the GI50 was 1610 nM and the total growth inhibition concentration (TGI) worked out at 3180 nM.

For the molecule `CCOP(=O)(OCC)OC[C@]12CCC(C)(C)C=C1[C@H]1CC[C@@H]3[C@@]4(C)CC[C@H](OP(=O)(OCC)OCC)C(C)(C)[C@@H]4CC[C@@]3(C)[C@]1(C)CC2`, the GI50 was 1300 nM and the total growth inhibition concentration (TGI) was 2930 nM.

In the case of `COc1ccc2c(c1)C(=O)/C(=C/c1cccc(OCC(=O)Nc3nc(C)c(C)s3)c1)O2`, the TGI came to 17.6 nM.

Regarding `COc1cc(OC)c2sc(-c3ccc(-n4cncc4-c4ccc(OC)c(OC)c4)cc3)nc2c1`, the GI50 was 4150 nM and the TGI is more than 100000 nM.

For the molecule `Clc1ccc(/C=C/c2ccc3ccccc3n2)cc1`, the GI50 was 419 nM and the total growth inhibition concentration (TGI) was determined as 2950 nM.

Turning to `N=c1ccc2nc3ccc(N)cc3sc-2c1`, the GI50 is 3020 nM and the concentration for total growth inhibition (TGI) worked out at 8120 nM.

For the molecule `COc1ccc(Nc2nc(Nc3cc(C)[nH]n3)c3cc(OC)c(OC)cc3n2)cc1`, the GI50 was 1010 nM and the TGI came to 2530 nM.

For the molecule `CCn1cc(/C=C2\Oc3cc(OCC#N)ccc3C2=O)c2cc(OC)ccc21`, the GI50 is 802 nM and the total growth inhibition concentration (TGI) was determined as 13700 nM.

In the case of `COc1ccc(-c2nc(-c3nc4cc(Cl)c(F)cc4[nH]3)c3ccccn23)cc1`, the GI50 is 2930 nM and the TGI is 30300 nM.

`Nc1nc(N)c2cc(Sc3ccc4ccccc4c3)ccc2n1`: the GI50 is 1100 nM and the concentration for total growth inhibition (TGI) stood at 2390 nM.

Turning to `CCOC(=O)c1ccc(NC(=O)NC2=NCCS2)cc1`, the GI50 is 623 nM and the concentration for total growth inhibition (TGI) was more than 26400 nM.

On to `Cc1cc(CCl)c(C)cc1CCl`, for which the GI50 is 379 nM and the TGI came out at 1600 nM.

For the origin of these results see PubChem BioAssay (NCI).
